Experimental data published in article PMC6100582 (Molecules : A Journal of Synthetic Chemistry and Natural …, 2018).
Converted amounts (≈) assume the structure as drawn. Where two headings read alike, the source gives them in different places.

Key:
[1] = test system: Staphylococcus aureus ATCC 6538; assay: Antimicrobial susceptibility assay in vitro (MIC determination); type: cell-based; settings: ATCC6538
[2] = test system: Streptococcus pneumonia MFBF 10373; assay: Minimum biofilm eradication assay; type: cell-based, Streptococcus pneumoniae
Description: MBECs of fumardiamides 4a–f and succindiamides 5a–f were determined as follows. Each well (96-well plate) was filled with 100 µl of bacterial (10^7 CFU/mL) or yeast (5 × 10^6 CFU/mL) suspension. When the inhibition of yeast biofilm formation was tested, the wells were pre-treated with fetal bovine serum (FBS) (250 µl per well). Negative controls contained broth only. Positive controls were performed using standard antimicrobial drugs gentamycin (Gen) and Amph, respectively. […] Following incubation period, each well was aspirated, washed three times and vigorously shaken to remove all non-adherent bacteria/yeast. The remaining attached cells were fixed with methanol (15 min) and the plates were left to dry overnight. Formed biofilm was stained with crystal violet (1%, 5 min). Excess stain was rinsed by placing the plate under running tap water and the plates were left to dry. Adherent cells were solubilized using ethanol. The absorbance was read at 570 nm. The MBEC value represents the lowest dilution of a compound at which bacteria fail to grow.

[3] = test system: DND-41 (acute lymphoblastic leukemia); assay: Antiproliferative screening (cytostatic activity); type: cell-based, human; settings: 72 h, IncuCyte imaging, read-out: IC50 DND-41
Description: Cytostatic activity was evaluated in vitro on nine different types of human tumor cell lines: Capan-1, Hap1, HCT-116, and NCI-H460, as well as hematological tumors such as DND-41, HL-60, K-562, MM.1S and Z-138 as described previously. All human tumor cell lines were acquired from the American Type Culture Collection (ATCC, Manassas, VA, USA), except for the DND-41 cell line which was purchased from the Deutsche Sammlung von Mikroorganismen und Zellkulturen (DSMZ Leibniz-Institut, Braunschweig, Germany) and the Hap1 cell line which was purchased from Horizon Discovery (Waterbeach, UK). Capan-1, Hap1, HL-60, K-562, Z-138, MM.1S and DND-41 were cultured in Iscove′s Modified Dulbecco′s Medium (IMDM, Gibco Life Technologies, Gaithersburg, MD, USA), HCT-116 were grown in McCoy′s 5A Medium (Gibco Life Technologies) and NCI-H460 were cultured in RPMI (Gibco Life Technologies). All media were supplemented with 10% FBS (HyClone, GE Healthcare Life Sciences, USA). Adherent cell lines HCT-116, Hap1, NCI-H460, and Capan-1 cells were seeded at a density between 400 and 1250 cells per well, in 384-well, black-walled, clear-bottomed tissue culture plates (Greiner Bio-One, Kremsmünster, Germany). After overnight incubation, cells were treated with test compounds at four different concentrations ranging from 100 to 0.8 µM. Suspension cell lines HL-60, K-562, Z-138, MM.1S, and DND-41 were seeded at densities ranging from 3000 to 10,000 cells per well in 384-well, black-walled, clear-bottomed tissue culture plates containing test compounds at the same four concentrations. The plates were incubated and monitored at 37 °C for 72 h in an IncuCyte (Essen BioScience Inc., Ann Arbor, MI, USA) for real-time imaging. Images were taken every 3 h, with one field image per well under 10× magnification. All compounds were tested with duplicate data points and averaged. […]

[4] = test system: Coxsackie Virus B4; assay: Antiviral activity in Vero cell cultures; type: cell-based; settings: Enterovirus B, B4, Vero cells
[5] = test system: Reovirus-1; assay: Antiviral activity in Vero cell cultures; type: cell-based; settings: Vero cells
[6] = test system: Z-138 (non-Hodgkin lymphoma); assay: Antiproliferative screening (cytostatic activity); type: cell-based; settings: Homo sapiens, Z-138; 72 h, IncuCyte imaging; read-out: IC50 Z-138
Description: (§1) All human tumor cell lines were acquired from the American Type Culture Collection (ATCC, Manassas, VA, USA), except for the DND-41 cell line which was purchased from the Deutsche Sammlung von Mikroorganismen und Zellkulturen (DSMZ Leibniz-Institut, Braunschweig, Germany) and the Hap1 cell line which was purchased from Horizon Discovery (Waterbeach, UK). […] All media were supplemented with 10% FBS (HyClone, GE Healthcare Life Sciences, USA). […] After overnight incubation, cells were treated with test compounds at four different concentrations ranging from 100 to 0.8 µM. […] Images were taken every 3 h, with one field image per well under 10× magnification. All compounds were tested with duplicate data points and averaged.

[7] = test system: Capan-1 (pancreatic adenocarcinoma); assay: Antiproliferative screening (cytostatic activity); type: cell-based; settings: Homo sapiens, CAPAN-1; 72 h, IncuCyte imaging; read-out: IC50 Capan-1
Description: as §1

[8] = test system: NCI-H460 (lung carcinoma); assay: Antiproliferative screening (cytostatic activity); type: cell-based; settings: Homo sapiens, NCI-H460; 72 h, IncuCyte imaging; read-out: IC50 NCI-H460
Description: as §1

[9] = test system: K-562 (chronic myeloid leukemia); assay: Antiproliferative screening (cytostatic activity); type: cell-based; settings: Homo sapiens, K562; 72 h, IncuCyte imaging; read-out: IC50 K-562
Description: as §1

[10] = test system: MM.1S (multiple myeloma); assay: Antiproliferative screening (cytostatic activity); type: cell-based; settings: Homo sapiens, MM1.S; 72 h, IncuCyte imaging; read-out: IC50 MM.1S
Description: as §1

[11] = test system: HCT-116 (colorectal carcinoma); assay: Antiproliferative screening (cytostatic activity); type: cell-based; settings: Homo sapiens, HCT-116; 72 h, IncuCyte imaging; read-out: IC50 HCT-116
Description: as §1

[12] = test system: Mycobacterium tuberculosis H37Ra; assay: Antimycobacterial susceptibility assay (MIC determination); type: cell-based; settings: 168 h, 7 days, 37 °C, alamarBlue
Description: At log phase growth, a culture sample (10 mL) was centrifuged at 15,000 rpm/20 min using a bench-top centrifuge (MPW-65R, MPW Med Instruments, Poland). Following removal of the supernatant, the pellet was washed in fresh Middlebrook 7H9GC broth and re-suspended in fresh, ODAC-supplemented MB (10 mL). The turbidity was adjusted to match McFarland standard No. 1 (3 × 10^8 CFU) with MB broth. A further 1:20 dilution of the culture was then performed in MB broth. The antimicrobial susceptibility of M. tuberculosis was investigated in a 96-well plate format. In these experiments, sterile deionised water (300 µl) was added to all outer-perimeter wells of the plates to minimize evaporation of the medium in the test wells during incubation. Each evaluated compound (100 µL) was incubated with M. tuberculosis (100 µl). Dilutions of each compound were prepared in duplicate. For all synthesized compounds, final concentrations ranged from 1000 μg/mL to 8 μg/mL. All compounds were dissolved in DMSO, and subsequent dilutions were made in supplemented MB. […] Following incubation, 10% of alamarBlue (Difco, Lawrence, KS, USA) was mixed into each well, and readings at 570 nm and 600 nm were taken, initially for background subtraction and subsequently after 24 h reincubation. […] For non-interfering compounds, a blue colour in the well was interpreted as the absence of growth, and a pink colour was scored as growth.

[13] = MTS, read-out: EC50 Coxsackie Virus B4, MTS
[14] = MTS, read-out: EC50 Reovirus-1, MTS
[15] = visual CPE score, read-out: EC50 Coxsackie Virus B4, Visual CPE Score
[16] = visual CPE score, read-out: EC50 Reovirus-1, Visual CPE Score

Row | Compound | MIC [1] [µg/mL] | MBEC [2] [µg/mL] | IC50 ([3]; Homo sapiens, DND41, 72 h) [µM] | EC50 [4, 13] [µM] | EC50 [5, 14] [µM] | IC50 [6] [µM] | IC50 [7] [µM] | IC50 [8] [µM] | IC50 [9] [µM] | IC50 [10] [µM] | IC50 [11] [µM] | MIC [12] [µg/mL] | EC50 [4, 15] [µM] | EC50 [5, 16] [µM] | IC50 [3] [µM]
1 | COc1cc(NC(C)CCCNC(=O)/C=C/C(=O)Nc2ccc(Cl)cc2)c2ncccc2c1 (stereo not shown) [Compound 4d, (2E)-N-(4-Chlorophenyl)-N′-{4-[(6-methoxyquinolin-8-yl)amino]pentyl}but-2-enediamide] | 6.1 (≈ 13.1 µM) | 50 | > 100 | > 50 | > 50 | > 100 | 91.8 | > 100 | > 100 | > 100 | > 100 | 128 (≈ 274 µM) |  |  | 
2 | COc1cc(NC(C)CCCNC(=O)/C=C/C(=O)Nc2cccc(F)c2)c2ncccc2c1 (stereo not shown) [Compound 4a, (2E)-N-(3-Fluorophenyl)-N′-{4-[(6-methoxyquinolin-8-yl)amino]pentyl}but-2-enediamide] | > 100 | 12.5 | 6.7 | > 50 | > 50 | 8.4 | 16.9 | 15.5 | 31.2 | 13 | 22.3 | 128 (≈ 284 µM) |  |  | 
3 | COc1cc(NC(C)CCCNC(=O)/C=C/C(=O)Nc2cccc(Cl)c2)c2ncccc2c1 (stereo not shown) [Compound 4c, (2E)-N-(3-Chlorophenyl)-N′-{4-[(6-methoxyquinolin-8-yl)amino]pentyl}but-2-enediamide] | 12.5 (≈ 26.8 µM) | 100 | 8.4 | > 50 | 3.8 | 46.5 | 69.9 | 43.7 | > 100 | > 100 | 73 | 128 (≈ 274 µM) | > 50 | > 50 | 
4 | COc1cc(NC(C)CCCNC(=O)/C=C/C(=O)Nc2ccc(C(F)(F)F)cc2)c2ncccc2c1 (stereo not shown) [Compound 4f, (2E)-N′-{4-[(6-Methoxyquinolin-8-yl)amino]pentyl}-N-[4-(trifluoromethyl)phenyl]but-2-enediamide] | 50 (≈ 99.9 µM) | 50 |  | > 50 | > 50 | > 100 | 79.4 | > 100 | > 100 | > 100 | > 100 | 64 (≈ 128 µM) |  |  | > 100
5 | COc1cc(NC(C)CCCNC(=O)/C=C/C(=O)Nc2cccc(C(F)(F)F)c2)c2ncccc2c1 (stereo not shown) [Compound 4e, (2E)-N′-{4-[(6-Methoxyquinolin-8-yl)amino]pentyl}-N-[3-(trifluoromethyl)phenyl]but-2-enediamide] | 50 (≈ 99.9 µM) | 50 | 8.9 | 3.1 | 3.1 | 68.4 | 56.5 | 34.2 | 71.2 | > 100 | > 100 | 128 (≈ 256 µM) | 2.7 | > 50 | 
6 | COc1cc(NC(C)CCCNC(=O)/C=C/C(=O)Nc2ccc(F)cc2)c2ncccc2c1 (stereo not shown) [Compound 4b, (2E)-N-(4-Fluorophenyl)-N′-{4-[(6-methoxyquinolin-8-yl)amino]pentyl}but-2-enediamide] | 12.5 (≈ 27.7 µM) | 25 | > 100 | > 50 | > 50 | > 100 | 50.5 | 29.1 | 70.5 | > 100 | > 100 | 32 (≈ 71 µM) |  |  | 
